In patent US6410568B1, “Porphyrins and their use as photosensitizer” (Astrid Schastak, priority 1998, dated 2002):

Columns and labels:
Experiment in all cases: Photodynamic effect in vitro, MTT test after irradiation
[1] = system: highly-differentiated gallbladder carcinoma cell line (Wittier); type: cell-based, human; settings: THPTPS 0.2, 0.4, 0.8 mg/ml for 12 hours, Ti:Sa laser 771 nm, 15 J/cm^2
Procedure: (§1) To examine the photodynamic effect in vitro, the above-mentioned cell lines were cultivated in a cell count of 2×10^5 C/ml in DMEM+10% FKS and incubated with the photosensitizer THPTPS in a concentration of 0.2, 0.4, 0.8 mg/ml (Wittier) or 0.4, 0.8, 1.6 mg/ml for 12 hours. Subsequently, they were irradiated with the light of a Ti:Sa leaser with a wavelength of 771 nm and a dose of 15 J/cm^2. […] Approximately 88% of the choroid melanoma cells were able to be killed by the irradiation.

[2] = system: bile duct adenocarcinoma cell line (Charies), undifferentiated to a high degree; type: cell-based; settings: THPTPS 0.4, 0.8, 1.6 mg/ml for 12 hours, Ti:Sa laser 771 nm, 15 J/cm^2
Procedure: as §1

choroid melanoma cells = type: cell-based; settings: THPTPS 0.4, 0.8, 1.6 mg/ml for 12 hours, Ti:Sa laser 771 nm, 15 J/cm^2
Procedure: as §1

In the case of “5,10,15,20-tetrakis-(1-alkyl-pyridyl)-21H, 23H-7,8,17,18-tetrahydroporphyrin-tetra-p-toluene sulphonate [THPTPS]”, the “cells dead (MTT test)” value [1] is reported as “approx. 88%”, the “cells dead (MTT test)” value [2] is reported as “approx. 84%” and the “cells killed by the irradiation (MTT test)” value (choroid melanoma cells) is reported as “approx. 88%”.
